Results on two compounds are retold here after patent US7205298B2, “Substituted triazine kinase inhibitors” (Janssen Pharmaceutica N.V., priority 2002, dated 2007).

As a reminder, the IC50 is the concentration needed to halve the response being measured. Higher therefore signals weaker potency in that assay.

For assay [1], the target named is T1, PKC β-2 (Homo sapiens, UniProt P05771).
T1 construct: purchased BIOMOL SE-143; host or cells: insect cells
The experiment in a line: Kinase selectivity assay PKC β-2. Type of assay: biochemical. The method, then:
Assays to test compound inhibition of other kinases were preformed using methods that measure the amount of phosphorylation of a biotinylated peptide substrate. Biotinylated peptide substrates were selected from the literature as appropriate for the enzyme being evaluated. The general procedure used to assay for kinase activity is as follows: a kinase reaction mix was prepared in 50 mM Tris-HCl pH=8, 10 mM MgCl2, 0.1 mM Na3VO4, 1 mM DTT, 10 μM ATP, 0.25–1 μM biotinylated peptide substrate, 0.2–0.8 μCuries per well ^33P-γ-ATP (2000–3000 Ci/mmol). Assay conditions vary slightly for each protein kinase, for example, insulin receptor kinase requires 10 mM MnCl2 for activity and Calmodulin-dependent protein kinase requires calmodulin and 2 mM CaCl2. The reaction mixture was dispensed into the wells of a streptavidin coated Flashplate and 1 μL test compound in 100% DMSO was added to a 100 μL reaction volume resulting in a final concentration of 1% DMSO in the reaction. Enzyme was diluted in 50 mM Tris-HCl pH=8.0, 0.1% BSA and added to each well. The reaction was incubated for one hour at 30° C. in the presence of a test compound. […] The plate was read on a scintillation counter to determine ^33P-γ-ATP incorporated into the immobilized peptide substrate. […] A maximum and minimum signal for the assay was determined on each plate. […]

For assay [2], the system named is MDA-MB-231. As to the kind of experiment: Inhibition of cell proliferation, 14C-thymidine incorporation, MDA-MB-231. Type of assay: cell-based. As to conditions: Homo sapiens. The method, then:
(§1) The ability of a test compound to inhibit the proliferation of cell growth was determined by measuring incorporation of ^14C-labelled thymidine into newly synthesized DNA within the cells. This method was used on cell lines derived from carcinomas originating from several tissues such as HeLa cervical adenocarcinoma (American Type Culture Collection (ATCC), Virginia, Cat. #CCL-2), HCT-116 colon carcinoma (CCL-247), MDA-MB-231 (Xenogen Corp.), PC-3 prostate adenocarcinoma (ATCC CRL-1435) and A375 malignant melanoma (ATCC CRL-1619).
(§2) Using this method, the effect of a compound on cell growth of cells with many different phenotypes can be determined. Cells were trypsinized and counted and 3000–8000 cells were added to each well of a 96-well CytoStar tissue culture treated scintillating microplate (Amersham #RPNQ0160) in complete medium in a volume of 100 μl. Cells were incubated for 24 hours in complete medium at 37° C. in an atmosphere containing 5% CO2. 1 μL of test compound in 100% DMSO was then added to the wells of the plate. DMSO only was added to control wells. Cells were incubated for 24 more hours in complete medium at 37° C. in an atmosphere containing 5% CO2. […] The degree of methyl ^14C-thymidine incorporation was quantified on a Packard Top Count.
For orientation: Uptake of a labelled nucleoside into DNA is a usual measure of proliferation.

In assay [3] the test system is PC-3 prostate adenocarcinoma. The experiment in a line: Inhibition of cell proliferation, 14C-thymidine incorporation, PC-3. Type of assay: cell-based. Conditions: Homo sapiens. The method, then: as §1, §2
In assay [4] the test system is A375 malignant melanoma. As to the kind of experiment: Inhibition of cell proliferation, 14C-thymidine incorporation, A375. Type of assay: cell-based. Conditions: Homo sapiens, A-375. The method, then: as §1, §2

T1 sequence (P05771 1-673 isoform P05771-2): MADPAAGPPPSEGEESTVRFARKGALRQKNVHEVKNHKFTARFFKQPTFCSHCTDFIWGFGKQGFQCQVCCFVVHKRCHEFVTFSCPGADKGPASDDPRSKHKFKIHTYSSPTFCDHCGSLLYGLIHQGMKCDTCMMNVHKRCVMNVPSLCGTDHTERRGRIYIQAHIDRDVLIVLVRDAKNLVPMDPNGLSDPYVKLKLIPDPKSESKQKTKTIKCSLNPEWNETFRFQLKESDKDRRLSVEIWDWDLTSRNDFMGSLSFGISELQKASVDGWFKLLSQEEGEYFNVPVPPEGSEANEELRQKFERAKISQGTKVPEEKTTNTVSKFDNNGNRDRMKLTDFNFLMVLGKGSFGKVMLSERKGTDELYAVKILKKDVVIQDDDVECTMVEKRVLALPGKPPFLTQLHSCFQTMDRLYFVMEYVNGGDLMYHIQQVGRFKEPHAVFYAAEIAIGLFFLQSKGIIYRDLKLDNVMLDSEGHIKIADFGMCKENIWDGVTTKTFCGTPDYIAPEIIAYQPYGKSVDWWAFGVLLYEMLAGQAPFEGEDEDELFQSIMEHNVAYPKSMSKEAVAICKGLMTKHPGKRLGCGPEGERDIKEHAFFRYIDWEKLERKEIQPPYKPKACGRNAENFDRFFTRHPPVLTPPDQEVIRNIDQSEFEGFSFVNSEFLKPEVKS

For the compound `OCCCNc1cncc(-c2ncnc(Nc3cccc(Cl)c3)n2)c1` [Compound 1, 3-((5-(4-((3-chlorophenyl)amino)-1,3,5-triazin-2-yl)-3-pyridinyl)amino)-1-propanol], the IC50 was over 100000 nM in assay [1], 330 nM in assay [2] and 259 nM in assay [3].

As to `OCCCNc1cc(-c2ncnc(Nc3cccc(Cl)c3)n2)ccn1` [Compound 2, 3-((4-(4-((3-chlorophenyl)amino)-1,3,5-triazin-2-yl)-2-pyridinyl)amino)-1-propanol], in assay [4], it took 80 nM to reach half-maximal inhibition (IC50).
